This is an account of results in patent US20240067673A1, “MODIFIED NUCLEOSIDE OR NUCLEOTIDE” (BIG SHENZHEN, priority 2020, published 2024).

The test system of this test is DNA nanospheres prepared by using E. coli sequencing library. Kind of test: Evaluation of blocking effect (incorporation and cleavage efficiency) on MGISEQ2000 sequencer. The test is classed as biochemical. The settings on record: for Cleavage efficiency (EC): ratio of Cleavage efficiency values for testing nucleotide and comparative nucleotide, thpp reagent, 65° C. 1 min, dTTP analogue; for Incorporation efficiency (EI): ratio of Incorporation efficiency values for testing nucleotide and comparative nucleotide (standard cold dNTP), dTTP analogue as cold dNTP. How it is done: 1. Evaluation of Blocking Effect
For each test, only one of the nucleotide analogues cold dNTP of the invention (dTTP, dATP, dCTP, and dGTP) was used. For ease of presentation, only testing results for dTTP were provided in the following table 1 for each kind of 3′-OH modification.
Sequencing was conducted according to the operation protocol of MGISEQ2000 sequencer, using the above nucleotide substrates and MGISEQ-2000RS high-throughput sequencing kit (FCL SE50).
(1) Preparing DNA nanospheres by using E. coli sequencing library;
(2) Loading DNA nanospheres onto the MGISEQ2000 sequencing chip;
(3) Amounting the loaded sequencing chip onto the MGISEQ2000 sequencer and set the sequencing process;
(4) Performing Test Round 1: incorporating standard hot dNTP, taking photos for recording signal value, and then cleaving the blocking group with thpp reagent, 65° C. 1 min.
(5) Performing Test Round 2: incorporating standard cold dNTP, then incorporating standard hot dNTP, taking photos for recording signal value, and then cleaving blocking group with thpp reagent, 65° C. 1 min.
(6) Performing Test Round 3: incorporating standard hot dNTP, taking photos for recording signal value, and then cleaving blocking group with thpp reagent, 65° C. 1 min.
(7) Performing Test Round 4: incorporating nucleotide analogues cold dNTP of the invention (only one kind of cold dNTP incorporated for each test), then incorporating standard hot dNTP, taking photos for recording signal value, and then cleaving blocking group with thpp reagent, 65° C. 1 min.
(8) Performing Test Round 5: incorporating standard hot dNTP, taking photos for recording signal value.
(9) Evaluating Incorporation efficiency and Cleavage efficiency.
Equation for Calculating Incorporation Efficiency: […]
wherein: • EI (Incorporation efficiency) is the ratio of Incorporation efficiency values for testing nucleotide and comparative nucleotide; • C1 is signal value of Test Round 1; • C2 is signal value of Test Round 2; • C3 is signal value of Test Round 3; • C4 is signal value of Test Round 4;
Equation for Calculating Cleavage Efficiency: […]
wherein: • Ec (Cleavage efficiency) is the ratio of Cleavage efficiency values for testing nucleotide and comparative nucleotide; • EI is the ratio of Incorporation efficiency values for testing nucleotide and comparative nucleotide; • C3 is signal value of Test Round 3; • C5 is signal value of Test Round 5; • CGT is the signals of base C, base G and base T in Test Round 3.

As for `Cc1cn([C@H]2CC(OC(=O)c3ccccc3C(C)SSCC(C)C)[C@@H](COP(=O)(O)OP(=O)(O)OP(=O)(O)O)O2)c(=O)[nH]c1=O` (stereo partly shown), the “Cleavage efficiency (EC)” value is 98% and the “Incorporation efficiency (EI)” value came out at 90%.
For `CCSSC(C)c1ccccc1C(=O)OC1C[C@H](n2cc(C)c(=O)[nH]c2=O)O[C@@H]1COP(=O)(O)OP(=O)(O)OP(=O)(O)O` (stereo partly shown), in that order: 110% and 100%.
For the compound `Cc1cn([C@H]2CC(OC(=O)c3occc3CN=[N+]=[N-])[C@@H](COP(=O)(O)OP(=O)(O)OP(=O)(O)O)O2)c(=O)[nH]c1=O` (stereo partly shown), the “Cleavage efficiency (EC)” value amounted to 5% and the “Incorporation efficiency (EI)” value was found to be 101%.
For `Cc1cn([C@H]2CC(OC(=O)c3ccccc3CN=[N+]=[N-])[C@@H](COP(=O)(O)OP(=O)(O)OP(=O)(O)O)O2)c(=O)[nH]c1=O` (stereo partly shown), the “Cleavage efficiency (EC)” value worked out at 91% and the “Incorporation efficiency (EI)” value was 98%.
As to `Cc1cn([C@H]2CC(OC(=O)c3cccnc3C(C)N=[N+]=[N-])[C@@H](COP(=O)(O)OP(=O)(O)OP(=O)(O)O)O2)c(=O)[nH]c1=O` (stereo partly shown), the “Cleavage efficiency (EC)” value worked out at 115% and the “Incorporation efficiency (EI)” value was 100%.
For `Cc1cn([C@H]2CC(OC(=O)Cc3ccccc3C(C)N=[N+]=[N-])[C@@H](COP(=O)(O)OP(=O)(O)OP(=O)(O)O)O2)c(=O)[nH]c1=O` (stereo partly shown), the “Cleavage efficiency (EC)” value came out at 91% and the “Incorporation efficiency (EI)” value stood at 98%.
For `Cc1cn([C@H]2CC(OC(=O)c3ccccc3C(C)N=[N+]=[N-])[C@@H](COP(=O)(O)OP(=O)(O)OP(=O)(O)O)O2)c(=O)[nH]c1=O` (stereo partly shown), in that order: 105% and 101%.
`Cc1cn([C@H]2CC(OC(=O)Cc3ccccc3CN=[N+]=[N-])[C@@H](COP(=O)(O)OP(=O)(O)OP(=O)(O)O)O2)c(=O)[nH]c1=O` (stereo partly shown): the “Cleavage efficiency (EC)” value stood at 89% and the “Incorporation efficiency (EI)” value worked out at 95%.
Take `Cc1cn([C@H]2CC(OC(=O)CCCN=[N+]=[N-])[C@@H](COP(=O)(O)OP(=O)(O)OP(=O)(O)O)O2)c(=O)[nH]c1=O` (stereo partly shown): the “Cleavage efficiency (EC)” value came out at 36% and the “Incorporation efficiency (EI)” value was 95%.
As to `Cc1cn([C@H]2CC(OC(=O)c3ccc([N+](=O)[O-])cc3CN=[N+]=[N-])[C@@H](COP(=O)(O)OP(=O)(O)OP(=O)(O)O)O2)c(=O)[nH]c1=O` (stereo partly shown), the “Cleavage efficiency (EC)” value is on record as 112% and the “Incorporation efficiency (EI)” value is 101%.
For `COc1ccc(C(=O)OC2C[C@H](n3ccc(N)nc3=O)O[C@@H]2COP(=O)(O)OP(=O)(O)OP(=O)(O)O)c(C(C)SSC)c1` (stereo partly shown), the “Cleavage efficiency (EC)” value is given as 101% and the “Incorporation efficiency (EI)” value worked out at 104%.
Take `Cc1cn([C@H]2CC(OC(=O)c3ccccc3C(C)SSC(C)C)[C@@H](COP(=O)(O)OP(=O)(O)OP(=O)(O)O)O2)c(=O)[nH]c1=O` (stereo partly shown): the “Cleavage efficiency (EC)” value was 103% and the “Incorporation efficiency (EI)” value is 95%.
In the case of `CSSC(C)c1cc(NC(C)=O)ccc1C(=O)OC1C[C@H](n2cc(C)c(=O)[nH]c2=O)O[C@@H]1COP(=O)(O)OP(=O)(O)OP(=O)(O)O` (stereo partly shown), the “Cleavage efficiency (EC)” value is on record as 98% and the “Incorporation efficiency (EI)” value came to 100%.
`Cc1cn([C@H]2CC(OC(=O)c3cccnc3C(C)(C)N=[N+]=[N-])[C@@H](COP(=O)(O)OP(=O)(O)OP(=O)(O)O)O2)c(=O)[nH]c1=O` (stereo partly shown): the “Cleavage efficiency (EC)” value stood at 110% and the “Incorporation efficiency (EI)” value was 95%.
As for `COc1ccc(C(=O)OC2C[C@H](n3cc(C)c(=O)[nH]c3=O)O[C@@H]2COP(=O)(O)OP(=O)(O)OP(=O)(O)O)c(C(C)N=[N+]=[N-])c1` (stereo partly shown), the “Cleavage efficiency (EC)” value is 98% and the “Incorporation efficiency (EI)” value is 101%.
For `Cc1cn([C@H]2CC(OC(=O)c3ccccc3CCN=[N+]=[N-])[C@@H](COP(=O)(O)OP(=O)(O)OP(=O)(O)O)O2)c(=O)[nH]c1=O` (stereo partly shown), in that order: “Incorporation efficiency (EI) 100% Cleavage efficiency (EC) 100%” and “Incorporation efficiency (EI) 100% Cleavage efficiency (EC) 100%”.
Regarding `CSSC(C)c1ccccc1C(=O)OC1C[C@H](n2cc(C)c(=O)[nH]c2=O)O[C@@H]1COP(=O)(O)OP(=O)(O)OP(=O)(O)O` (stereo partly shown), the “Cleavage efficiency (EC)” value is recorded as 111% and the “Incorporation efficiency (EI)” value is 100%.
